Source: patent US20240390434A1, “PROBIOTIC ENHANCERS AND USES THEREOF” (Blis Technologies Limited, priority 2021, published 2024)

Key:
Type in all cases: cell-based
[1] = system: S. saprophyticus ATCC 15305; experiment: Deferred antagonism assay, producer S. salivarius M18; details: for Zone of inhibition S. saprophyticus ATCC 15305: M18
Description: (§1) 1-2 producer strain colonies were transferred from a stock plate into 900 μL of suspension solution using a fresh cotton swab. Following this, suspensions were vortexed, and a sample was inoculated onto solid culture media using a fresh cotton swab. The inoculation was a streak that runs diametrically across the agar plate in a 1.5 cm wide strip. The plate was then incubated. Following incubation all visible colonies were removed by swabbing them from the agar surface. The plates were then treated with chloroform by dispensing 2 ml of chloroform onto 4 cm×4 cm piece of cloth and sealing the inverted agar plate on top for 30 minutes. The plates were then air dried for 30 minutes following chloroforming. 1-2 indicator strain colonies were then transferred from a stock plate into complementary suspension solution. The suspensions were then vortexed, and a sample was inoculated onto the same agar surface. These samples were streaked in a perpendicular direction to the initial producer streak.
(§2) Each indicator streak was prepared with fresh a suspension containing cells from a corresponding stock plate containing the indicator strain of interest. Indicator strains suspension samples were transferred using a fresh cotton swab. Results were measured by qualitatively reviewing the subsequent (if any) sizes of the zones of inhibition (ZOI) of indicator strain colony growth. A positive result is when there is a distinctive reduction or complete inhibition of indicator colony growth on the culture medium.
(§3) CABCa agar plates containing various concentrations of saccharide were prepared according to the methods described in Method 1. Producer strains were transferred from stock agar plates into 900 μL THB using a fresh cotton swab. A plastic spread plater was cut to approximately 1.2 cm width and then dipped into ethanol and left to air dry to ensure sterility. A 100 μL sample of the producer strain suspension was then dispensed onto the agar surface in a straight line running diametrically across the agar surface in (approximately) 20 μL spots. The spots were spaced approximately 1.5 cm apart from each other. The plastic spreader was then used to evenly distribute the spots across the agar surface in a 1.5 cm wide strip. This step was taken to ensure an even producer streak was inoculated onto the agar surface and provided an approximate measure of the initial inoculum concentration. Separate plastic spreaders were used for samples containing different producer strains. The samples were left to soak into the agar surface until there was no visible liquid remaining on the agar surface (approximately 20 minutes). Following producer streak preparations, the deferred antagonism assay protocol was followed as per Method 2. Results were recorded by measuring the size of the zone of inhibition (ZOI) in mm.
(§4) A dose response assay was carried out according to method 3 above, except a 1.2 cm streak was used. For the individual saccharide testing the pH of the producer streak was adjusted after the growth of producer to change the acidic conditions.
(§5) A deferred antagonism assay was conducted using K12 or M18 raw ingredient suspended in Todd Hewitt broth (THB). This was spread as a 1.2 cm streak containing approximately 1-2×10^6 cfu down the middle of a CABCa control or CABCa galactose supplemented test plate. After 18 hrs growth at 37° C. with 5% CO2, bacterial growth was removed, and the pH of the agar in the initial streak was measured and adjusted to a pH of 6.5-7.5 using 0.5M sodium carbonate pH11 before sterilizing the agar surface using chloroform vapor. Bacterial test strains were suspended in i-THB before being swabbed across the plates perpendicular to the initial streak. Plates were incubated for a further 18 hrs incubation at 37° C. with 5% CO2 before measuring (mm) any zones of inhibition for each test strain, […]

S. pneumoniae D39 = experiment: as above; details: for Zone of inhibition S. pneumoniae D39: M18
Description: as §1, §2, §3, §4, §5

S. pyogenes 71-698 = experiment: as above; details: for Zone of inhibition S. pyogenes 71-698: M18
Description: as §1, §2, §3, §4, §5

S. constellatus T29 = experiment: as above; details: for Zone of inhibition S. constellatus T29: M18
Description: as §1, §2, §3, §4, §5

S. aureus A222 = experiment: as above; details: for Zone of inhibition S. aureus A222: M18
Description: as §1, §2, §3, §4, §5

S. mutans OMZ175 = experiment: as above; details: for Zone of inhibition S. mutans OMZ175: M18
Description: as §1, §2, §3, §4, §5

indicator strains = experiment: Deferred antagonism assay, producer S. salivarius M18: total strains inhibited
Description: as §1, §2, §3, §4, §5

L. lactis T-21 = experiment: Dose response deferred antagonism assay, producer M18; details: 0.1% (w/v) raffinose
[2] = 1.25, 2.5, 5% w/v raffinose added

OC[C@H]1O[C@H](OC[C@H]2O[C@H](O[C@]3(CO)O[C@H](CO)[C@@H](O)[C@@H]3O)[C@H](O)[C@@H](O)[C@@H]2O)[C@H](O)[C@@H](O)[C@H]1O [Raffinose, D-(+) Raffinose pentahydrate]
sensitivity of S. saprophyticus ATCC 15305 to M18 [1, 2]: sensitive | Zone of inhibition S. saprophyticus ATCC 15305 ([1]; Raffinose 1.7% wt): 16 mm | Zone of inhibition S. saprophyticus ATCC 15305 ([1]; Raffinose 1.7% wt, pH adjusted): 15 mm | Zone of inhibition S. saprophyticus ATCC 15305 ([1]; Raffinose 2.5% wt): 17 mm | Zone of inhibition S. saprophyticus ATCC 15305 ([1]; Raffinose 2.5% wt, pH adjusted): 15 mm | Zone of inhibition S. saprophyticus ATCC 15305 ([1]; Raffinose 3.3% wt): 17 mm | Zone of inhibition S. saprophyticus ATCC 15305 ([1]; Raffinose 3.3% wt, pH adjusted): 14 mm | Zone of inhibition S. saprophyticus ATCC 15305 ([1]; Raffinose 5% wt): 14 mm | Zone of inhibition S. saprophyticus ATCC 15305 ([1]; Raffinose 5% wt, pH adjusted): 12 mm | Zone of inhibition S. saprophyticus ATCC 15305 ([1]; Raffinose 10% wt): 0 mm | Zone of inhibition S. saprophyticus ATCC 15305 ([1]; Raffinose 10% wt, pH adjusted): 0 mm | inhibition by M18 of S. pneumoniae (S. pneumoniae D39; 0.5 to 10% w/v raffinose): increase in inhibition | Zone of inhibition S. pneumoniae D39 (S. pneumoniae D39; Raffinose 1.7% wt): 3 mm | Zone of inhibition S. pneumoniae D39 (S. pneumoniae D39; Raffinose 1.7% wt, pH adjusted): 12 mm | Zone of inhibition S. pneumoniae D39 (S. pneumoniae D39; Raffinose 2.5% wt): 10 mm | Zone of inhibition S. pneumoniae D39 (S. pneumoniae D39; Raffinose 2.5% wt, pH adjusted): 11 mm | Zone of inhibition S. pneumoniae D39 (S. pneumoniae D39; Raffinose 3.3% wt): 7 mm | Zone of inhibition S. pneumoniae D39 (S. pneumoniae D39; Raffinose 3.3% wt, pH adjusted): 13 mm | Zone of inhibition S. pneumoniae D39 (S. pneumoniae D39; Raffinose 5% wt): 2 mm | Zone of inhibition S. pneumoniae D39 (S. pneumoniae D39; Raffinose 5% wt, pH adjusted): 12 mm | Zone of inhibition S. pneumoniae D39 (S. pneumoniae D39; Raffinose 10% wt): 1 mm | Zone of inhibition S. pneumoniae D39 (S. pneumoniae D39; Raffinose 10% wt, pH adjusted): 11 mm | inhibition by M18 of S. pyogenes (S. pyogenes 71-698; 0.5 to 10% w/v raffinose): increase in inhibition | Zone of inhibition S. pyogenes 71-698 (S. pyogenes 71-698; Raffinose 1.7% wt, pH adjusted): 10 mm | Zone of inhibition S. pyogenes 71-698 (S. pyogenes 71-698; Raffinose 2.5% wt): 8 mm | Zone of inhibition S. pyogenes 71-698 (S. pyogenes 71-698; Raffinose 2.5% wt, pH adjusted): 7 mm | Zone of inhibition S. pyogenes 71-698 (S. pyogenes 71-698; Raffinose 3.3% wt): 8 mm | Zone of inhibition S. pyogenes 71-698 (S. pyogenes 71-698; Raffinose 3.3% wt, pH adjusted): 7 mm | Zone of inhibition S. pyogenes 71-698 (S. pyogenes 71-698; Raffinose 5% wt): 5 mm | Zone of inhibition S. pyogenes 71-698 (S. pyogenes 71-698; Raffinose 5% wt, pH adjusted): 5 mm | Zone of inhibition S. pyogenes 71-698 (S. pyogenes 71-698; Raffinose 10% wt): 0 mm | Zone of inhibition S. pyogenes 71-698 (S. pyogenes 71-698; Raffinose 10% wt, pH adjusted): 0 mm | sensitivity of S. constellatus T-29 to M18 (S. constellatus T29; [2]): sensitive | Zone of inhibition S. constellatus T29 (S. constellatus T29; Raffinose 1.7% wt): 22 mm | Zone of inhibition S. constellatus T29 (S. constellatus T29; Raffinose 1.7% wt, pH adjusted): 17 mm | Zone of inhibition S. constellatus T29 (S. constellatus T29; Raffinose 2.5% wt): 18 mm | Zone of inhibition S. constellatus T29 (S. constellatus T29; Raffinose 2.5% wt, pH adjusted): 16 mm | Zone of inhibition S. constellatus T29 (S. constellatus T29; Raffinose 3.3% wt): 18 mm | Zone of inhibition S. constellatus T29 (S. constellatus T29; Raffinose 3.3% wt, pH adjusted): 17 mm | Zone of inhibition S. constellatus T29 (S. constellatus T29; Raffinose 5% wt): 16 mm | Zone of inhibition S. constellatus T29 (S. constellatus T29; Raffinose 5% wt, pH adjusted): 14 mm | Zone of inhibition S. constellatus T29 (S. constellatus T29; Raffinose 10% wt): 12 mm | Zone of inhibition S. constellatus T29 (S. constellatus T29; Raffinose 10% wt, pH adjusted): 0 mm | sensitivity of S. aureus A222 to M18 (S. aureus A222; [2]): sensitive | Zone of inhibition S. aureus A222 (S. aureus A222; Raffinose 1.7% wt): 20 mm | Zone of inhibition S. aureus A222 (S. aureus A222; Raffinose 1.7% wt, pH adjusted): 17 mm | Zone of inhibition S. aureus A222 (S. aureus A222; Raffinose 2.5% wt): 20 mm | Zone of inhibition S. aureus A222 (S. aureus A222; Raffinose 2.5% wt, pH adjusted): 18 mm | Zone of inhibition S. aureus A222 (S. aureus A222; Raffinose 3.3% wt): 18 mm | Zone of inhibition S. aureus A222 (S. aureus A222; Raffinose 3.3% wt, pH adjusted): 17 mm | Zone of inhibition S. aureus A222 (S. aureus A222; Raffinose 5% wt): 16 mm | Zone of inhibition S. aureus A222 (S. aureus A222; Raffinose 5% wt, pH adjusted): 13 mm | Zone of inhibition S. aureus A222 (S. aureus A222; Raffinose 10% wt): 0 mm | Zone of inhibition S. aureus A222 (S. aureus A222; Raffinose 10% wt, pH adjusted): 0 mm | sensitivity of S. mutans OMZ175 to M18 (S. mutans OMZ175; 0.5, 1.25, 2.5, and 5% w/v raffinose added): sensitive | Zone of inhibition S. mutans OMZ175 (S. mutans OMZ175; Raffinose 1.7% wt): 22 mm | Zone of inhibition S. mutans OMZ175 (S. mutans OMZ175; Raffinose 1.7% wt, pH adjusted): 21 mm | Zone of inhibition S. mutans OMZ175 (S. mutans OMZ175; Raffinose 2.5% wt): 20 mm | Zone of inhibition S. mutans OMZ175 (S. mutans OMZ175; Raffinose 2.5% wt, pH adjusted): 19 mm | Zone of inhibition S. mutans OMZ175 (S. mutans OMZ175; Raffinose 3.3% wt): 21 mm | Zone of inhibition S. mutans OMZ175 (S. mutans OMZ175; Raffinose 3.3% wt, pH adjusted): 17 mm | Zone of inhibition S. mutans OMZ175 (S. mutans OMZ175; Raffinose 5% wt): 19 mm | Zone of inhibition S. mutans OMZ175 (S. mutans OMZ175; Raffinose 5% wt, pH adjusted): 16 mm | Zone of inhibition S. mutans OMZ175 (S. mutans OMZ175; Raffinose 10% wt): 0 mm | Zone of inhibition S. mutans OMZ175 (S. mutans OMZ175; Raffinose 10% wt, pH adjusted): 0 mm | Total number of strains inhibited (indicator strains; Raffinose 1.7% wt): 6 | Total number of strains inhibited (indicator strains; Raffinose 1.7% wt, pH adjusted): 6 | Total number of strains inhibited (indicator strains; Raffinose 2.5% wt): 7 | Total number of strains inhibited (indicator strains; Raffinose 2.5% wt, pH adjusted): 6 | Total number of strains inhibited (indicator strains; Raffinose 3.3% wt): 6 | Total number of strains inhibited (indicator strains; Raffinose 3.3% wt, pH adjusted): 6 | Total number of strains inhibited (indicator strains; Raffinose 5% wt): 7 | Total number of strains inhibited (indicator strains; Raffinose 5% wt, pH adjusted): 6 | Total number of strains inhibited (indicator strains; Raffinose 10% wt): 2 | Total number of strains inhibited (indicator strains; Raffinose 10% wt, pH adjusted): 1 | L. lactis ZOI size (L. lactis T-21): 20 mm
